Tests used:
Lethal factor [1] = biological target: T1, Lethal factor (Bacillus anthracis, UniProt P15917)
T1 sequence (P15917 whole entry): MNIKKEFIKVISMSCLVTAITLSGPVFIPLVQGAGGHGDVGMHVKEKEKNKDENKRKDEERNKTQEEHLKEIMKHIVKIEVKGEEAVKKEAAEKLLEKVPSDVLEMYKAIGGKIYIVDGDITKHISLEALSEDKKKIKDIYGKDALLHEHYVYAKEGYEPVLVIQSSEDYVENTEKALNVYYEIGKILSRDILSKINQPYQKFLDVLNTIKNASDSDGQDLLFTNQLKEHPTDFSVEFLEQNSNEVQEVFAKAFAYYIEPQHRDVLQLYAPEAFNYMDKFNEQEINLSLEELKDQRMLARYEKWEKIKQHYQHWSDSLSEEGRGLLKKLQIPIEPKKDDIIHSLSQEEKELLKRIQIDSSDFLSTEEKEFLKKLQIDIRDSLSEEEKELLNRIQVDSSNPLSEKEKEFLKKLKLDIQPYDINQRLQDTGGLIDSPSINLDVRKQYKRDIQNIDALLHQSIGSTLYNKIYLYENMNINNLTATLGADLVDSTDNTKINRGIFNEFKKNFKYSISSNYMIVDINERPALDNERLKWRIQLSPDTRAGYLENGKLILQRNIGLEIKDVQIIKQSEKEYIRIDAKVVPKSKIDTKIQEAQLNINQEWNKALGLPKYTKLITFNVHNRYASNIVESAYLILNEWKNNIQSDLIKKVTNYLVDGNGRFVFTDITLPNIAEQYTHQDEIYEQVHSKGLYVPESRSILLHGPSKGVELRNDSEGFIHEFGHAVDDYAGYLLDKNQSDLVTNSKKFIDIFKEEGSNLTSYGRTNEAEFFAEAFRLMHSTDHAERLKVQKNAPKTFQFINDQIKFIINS

Lethal factor [2] = biological target: T1, Lethal factor; remark: listed apart in the source
Lethal factor [3] = biological target: T1, Lethal factor; assay: Inhibition of LF; details: read-out: IC50
[4] = biological target: Angiotensin-converting enzyme (Homo sapiens) (UniProt P12821); assay: Inhibition of ACE at 10 uM
Neprilysin = Neprilysin (Homo sapiens, UniProt P08473); assay: Inhibition of NEP
[5] = biological target: Disintegrin and metalloproteinase domain-containing protein 17 (Homo sapiens, UniProt P78536); assay: Inhibition of TACE
Interstitial collagenase = biological target: T2, Interstitial collagenase (Homo sapiens, UniProt P03956); assay: Inhibition of MMP1
T2 sequence (P03956 whole entry): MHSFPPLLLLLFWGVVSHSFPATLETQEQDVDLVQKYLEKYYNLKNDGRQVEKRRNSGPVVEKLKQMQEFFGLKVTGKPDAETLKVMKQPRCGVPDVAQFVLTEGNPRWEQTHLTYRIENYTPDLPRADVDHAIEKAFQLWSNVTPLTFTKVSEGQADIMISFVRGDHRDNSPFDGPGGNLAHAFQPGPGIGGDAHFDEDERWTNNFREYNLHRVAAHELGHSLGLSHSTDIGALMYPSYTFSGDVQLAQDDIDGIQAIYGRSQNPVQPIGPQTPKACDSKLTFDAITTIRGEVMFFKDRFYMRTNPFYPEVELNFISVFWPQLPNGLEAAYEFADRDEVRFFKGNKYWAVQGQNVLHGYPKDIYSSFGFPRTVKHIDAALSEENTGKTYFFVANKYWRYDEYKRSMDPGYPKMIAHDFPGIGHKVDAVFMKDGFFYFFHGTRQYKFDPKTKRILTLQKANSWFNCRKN

[6] = biological target: 72 kDa type IV collagenase (Homo sapiens, UniProt P08253); assay: Inhibition of MMP2
Stromelysin-1 = Stromelysin-1 (Homo sapiens, UniProt P08254); assay: Inhibition of MMP3
[7] = biological target: Matrix metalloproteinase-9 (Homo sapiens, UniProt P14780); assay: Inhibition of MMP9
[8] = Clearance in BALB/c mice at 10 mg/kg, iv; type: ADME, organism-based; set-up: dose 10 mg/kg, route intravenous; details: mouse, in vivo
[9] = Cmax in BALB/c mice at 10 mg/kg, iv; type: ADME, organism-based; set-up: dose 10 mg/kg, route intravenous; details: mouse, in vivo
[10] = Tmax in BALB/c mice at 10 mg/kg, iv; type: ADME, organism-based; set-up: dose 10 mg/kg, route intravenous; details: mouse, in vivo
[11] = Half life in rhesus monkey at 1 mg/kg, iv; type: ADME, organism-based, Macaca mulatta; set-up: dose 1 mg/kg, route intravenous; details: in vivo
[12] = Cmax in rhesus monkey at 1 mg/kg, iv; type: ADME, organism-based, Macaca mulatta; set-up: dose 1 mg/kg, route intravenous; details: in vivo
[13] = Bioavailability in rhesus monkey […], po; type: ADME, organism-based, Macaca mulatta; details: in vivo
[14] = Cmax in Sprague-Dawley rat at 1 mg/kg, iv; type: ADME, organism-based; set-up: dose 1 mg/kg, route intravenous; details: in vivo
[15] = Bioavailability in Sprague-Dawley rat at 2 mg/ml, po; type: ADME, organism-based; details: in vivo
[16] = Volume of distribution in Guinea pig at 2 mg/kg, iv; type: ADME, organism-based, Cavia porcellus; set-up: dose 2 mg/kg, route intravenous; details: in vivo, read-out: Vdss
[17] = Half life in Guinea pig at 2 mg/kg, iv; type: ADME, organism-based, Cavia porcellus; set-up: dose 2 mg/kg, route intravenous; details: in vivo
[18] = Cmax in Guinea pig at 2 mg/kg, iv; type: ADME, organism-based, Cavia porcellus; set-up: dose 2 mg/kg, route intravenous; details: in vivo
[19] = Tmax in Guinea pig at 2 mg/kg, iv; type: ADME, organism-based, Cavia porcellus; set-up: dose 2 mg/kg, route intravenous; details: in vivo
[20] = Bioavailability in Guinea pig at 1 mg/ml, po; type: ADME, organism-based, Cavia porcellus; details: in vivo
[21] = Volume of distribution in Dutch Belted rabbit at 2 mg/kg, iv; type: ADME, organism-based, Oryctolagus cuniculus; set-up: dose 2 mg/kg, route intravenous; details: in vivo, read-out: Vdss
[22] = Half life in Dutch Belted rabbit at 2 mg/kg, iv; type: ADME, organism-based, Oryctolagus cuniculus; set-up: dose 2 mg/kg, route intravenous; details: in vivo
[23] = Tmax in Dutch Belted rabbit at 2 mg/kg, iv; type: ADME, organism-based, Oryctolagus cuniculus; set-up: dose 2 mg/kg, route intravenous; details: in vivo
[24] = Volume of distribution in New Zealand White rabbit at 5 mg/kg, iv; type: ADME, organism-based, Oryctolagus cuniculus; set-up: dose 5 mg/kg, route intravenous; details: in vivo, read-out: Vdss
[25] = Cmax in Beagle dog at 1 mg/kg, iv; type: ADME, organism-based, Canis lupus familiaris; set-up: dose 1 mg/kg, route intravenous; details: in vivo
[26] = Tmax in Beagle dog at 1 mg/kg, iv; type: ADME, organism-based, Canis lupus familiaris; set-up: dose 1 mg/kg, route intravenous; details: in vivo
[27] = Clearance in rhesus monkey at 1 mg/kg, iv; type: ADME, organism-based, Macaca mulatta; set-up: dose 1 mg/kg, route intravenous; details: in vivo
[28] = Volume of distribution in rhesus monkey at 1 mg/kg, iv; type: ADME, organism-based, Macaca mulatta; set-up: dose 1 mg/kg, route intravenous; details: in vivo, read-out: Vdss

Disintegrin and metalloproteinase domain-containing protein 17, sequence (P78536 whole entry, the tested form may be a part): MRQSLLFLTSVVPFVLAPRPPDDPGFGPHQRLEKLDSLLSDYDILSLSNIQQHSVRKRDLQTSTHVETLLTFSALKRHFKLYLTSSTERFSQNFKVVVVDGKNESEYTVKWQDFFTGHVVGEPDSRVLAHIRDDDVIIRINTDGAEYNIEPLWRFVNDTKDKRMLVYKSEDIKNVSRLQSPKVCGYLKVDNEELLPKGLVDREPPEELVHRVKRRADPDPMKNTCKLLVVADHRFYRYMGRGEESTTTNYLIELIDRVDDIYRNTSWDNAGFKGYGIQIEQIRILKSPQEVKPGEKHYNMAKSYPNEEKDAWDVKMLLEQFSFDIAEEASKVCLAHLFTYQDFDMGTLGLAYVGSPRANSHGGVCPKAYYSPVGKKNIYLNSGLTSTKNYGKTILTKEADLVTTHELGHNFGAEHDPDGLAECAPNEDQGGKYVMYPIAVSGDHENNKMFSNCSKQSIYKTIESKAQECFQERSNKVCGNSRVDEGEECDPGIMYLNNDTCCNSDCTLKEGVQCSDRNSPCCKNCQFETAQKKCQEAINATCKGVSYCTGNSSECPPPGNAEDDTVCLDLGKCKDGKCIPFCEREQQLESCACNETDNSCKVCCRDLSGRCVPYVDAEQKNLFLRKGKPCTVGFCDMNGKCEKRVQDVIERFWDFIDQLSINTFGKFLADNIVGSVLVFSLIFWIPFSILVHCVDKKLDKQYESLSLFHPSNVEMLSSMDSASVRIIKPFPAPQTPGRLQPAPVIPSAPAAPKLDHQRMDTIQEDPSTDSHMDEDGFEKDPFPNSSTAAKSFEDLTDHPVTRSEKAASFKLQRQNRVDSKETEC
72 kDa type IV collagenase, sequence (P08253 whole entry): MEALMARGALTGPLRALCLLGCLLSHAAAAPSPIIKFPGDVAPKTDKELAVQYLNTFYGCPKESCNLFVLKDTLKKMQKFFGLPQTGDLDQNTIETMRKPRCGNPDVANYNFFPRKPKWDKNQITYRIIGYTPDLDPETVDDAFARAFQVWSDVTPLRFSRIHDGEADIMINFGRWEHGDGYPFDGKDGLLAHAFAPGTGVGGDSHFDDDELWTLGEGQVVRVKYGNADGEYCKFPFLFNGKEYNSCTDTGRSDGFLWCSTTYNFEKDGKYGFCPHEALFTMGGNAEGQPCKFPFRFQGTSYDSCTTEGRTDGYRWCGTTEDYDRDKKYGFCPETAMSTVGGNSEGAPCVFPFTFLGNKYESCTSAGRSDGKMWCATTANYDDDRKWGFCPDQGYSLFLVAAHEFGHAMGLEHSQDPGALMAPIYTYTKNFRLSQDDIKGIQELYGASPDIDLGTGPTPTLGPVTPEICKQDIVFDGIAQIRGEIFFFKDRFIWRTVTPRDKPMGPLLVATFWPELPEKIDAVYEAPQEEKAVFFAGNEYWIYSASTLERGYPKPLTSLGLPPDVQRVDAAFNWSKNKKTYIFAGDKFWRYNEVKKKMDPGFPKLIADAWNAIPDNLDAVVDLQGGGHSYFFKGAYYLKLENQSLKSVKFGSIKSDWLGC
Matrix metalloproteinase-9, sequence (P14780 whole entry): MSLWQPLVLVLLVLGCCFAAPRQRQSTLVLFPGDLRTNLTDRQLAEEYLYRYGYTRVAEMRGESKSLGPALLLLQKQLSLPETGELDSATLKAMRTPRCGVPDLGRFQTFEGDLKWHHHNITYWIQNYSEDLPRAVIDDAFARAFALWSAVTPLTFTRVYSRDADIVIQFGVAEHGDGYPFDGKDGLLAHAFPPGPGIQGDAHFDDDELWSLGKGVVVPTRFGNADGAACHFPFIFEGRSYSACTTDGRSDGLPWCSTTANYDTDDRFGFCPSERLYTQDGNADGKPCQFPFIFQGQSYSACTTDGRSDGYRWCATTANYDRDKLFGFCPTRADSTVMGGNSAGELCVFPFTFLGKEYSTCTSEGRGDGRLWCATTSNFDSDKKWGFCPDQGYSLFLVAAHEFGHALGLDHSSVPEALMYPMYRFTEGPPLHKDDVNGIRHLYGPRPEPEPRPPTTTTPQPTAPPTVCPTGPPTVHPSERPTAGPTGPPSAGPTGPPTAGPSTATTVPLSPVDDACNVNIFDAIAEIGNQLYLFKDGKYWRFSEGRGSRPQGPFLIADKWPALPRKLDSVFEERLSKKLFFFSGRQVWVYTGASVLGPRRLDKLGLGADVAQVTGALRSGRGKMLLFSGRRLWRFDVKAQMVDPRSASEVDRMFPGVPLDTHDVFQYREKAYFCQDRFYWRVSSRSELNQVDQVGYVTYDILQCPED
Angiotensin-converting enzyme (Homo sapiens), sequence (P12821 whole entry): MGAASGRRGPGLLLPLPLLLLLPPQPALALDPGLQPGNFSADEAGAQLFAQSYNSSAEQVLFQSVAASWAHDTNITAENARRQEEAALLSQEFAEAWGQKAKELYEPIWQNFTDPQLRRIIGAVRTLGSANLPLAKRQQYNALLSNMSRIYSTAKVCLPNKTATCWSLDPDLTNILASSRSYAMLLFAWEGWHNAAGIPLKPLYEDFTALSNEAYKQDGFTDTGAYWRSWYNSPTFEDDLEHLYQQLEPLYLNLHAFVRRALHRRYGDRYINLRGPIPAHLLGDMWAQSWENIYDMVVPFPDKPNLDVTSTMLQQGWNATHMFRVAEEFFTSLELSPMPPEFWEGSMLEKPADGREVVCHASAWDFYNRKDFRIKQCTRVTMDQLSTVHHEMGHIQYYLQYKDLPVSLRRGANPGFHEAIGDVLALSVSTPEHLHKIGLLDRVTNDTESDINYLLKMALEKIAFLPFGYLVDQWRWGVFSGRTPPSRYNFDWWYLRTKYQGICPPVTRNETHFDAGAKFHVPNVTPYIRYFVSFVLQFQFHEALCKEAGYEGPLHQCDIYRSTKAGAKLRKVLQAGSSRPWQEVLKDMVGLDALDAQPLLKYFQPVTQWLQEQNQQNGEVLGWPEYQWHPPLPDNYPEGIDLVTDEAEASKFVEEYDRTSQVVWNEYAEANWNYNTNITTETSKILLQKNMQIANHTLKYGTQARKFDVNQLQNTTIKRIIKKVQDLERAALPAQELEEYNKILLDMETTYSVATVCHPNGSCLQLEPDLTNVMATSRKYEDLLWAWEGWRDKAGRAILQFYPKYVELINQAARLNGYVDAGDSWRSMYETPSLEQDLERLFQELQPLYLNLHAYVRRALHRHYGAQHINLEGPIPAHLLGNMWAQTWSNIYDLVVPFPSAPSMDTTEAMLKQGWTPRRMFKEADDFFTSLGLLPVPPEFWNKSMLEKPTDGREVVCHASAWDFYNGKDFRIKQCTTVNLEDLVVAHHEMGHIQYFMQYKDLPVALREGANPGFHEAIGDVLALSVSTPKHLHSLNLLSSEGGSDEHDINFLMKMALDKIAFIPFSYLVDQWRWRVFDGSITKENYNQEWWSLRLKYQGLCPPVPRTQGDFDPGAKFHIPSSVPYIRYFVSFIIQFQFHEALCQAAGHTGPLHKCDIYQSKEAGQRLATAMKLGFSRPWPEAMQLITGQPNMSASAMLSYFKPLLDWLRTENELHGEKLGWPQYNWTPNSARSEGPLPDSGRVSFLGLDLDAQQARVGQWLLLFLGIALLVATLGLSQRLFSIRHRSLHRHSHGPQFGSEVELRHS
Neprilysin, sequence (P08473 whole entry, the tested form may be a part): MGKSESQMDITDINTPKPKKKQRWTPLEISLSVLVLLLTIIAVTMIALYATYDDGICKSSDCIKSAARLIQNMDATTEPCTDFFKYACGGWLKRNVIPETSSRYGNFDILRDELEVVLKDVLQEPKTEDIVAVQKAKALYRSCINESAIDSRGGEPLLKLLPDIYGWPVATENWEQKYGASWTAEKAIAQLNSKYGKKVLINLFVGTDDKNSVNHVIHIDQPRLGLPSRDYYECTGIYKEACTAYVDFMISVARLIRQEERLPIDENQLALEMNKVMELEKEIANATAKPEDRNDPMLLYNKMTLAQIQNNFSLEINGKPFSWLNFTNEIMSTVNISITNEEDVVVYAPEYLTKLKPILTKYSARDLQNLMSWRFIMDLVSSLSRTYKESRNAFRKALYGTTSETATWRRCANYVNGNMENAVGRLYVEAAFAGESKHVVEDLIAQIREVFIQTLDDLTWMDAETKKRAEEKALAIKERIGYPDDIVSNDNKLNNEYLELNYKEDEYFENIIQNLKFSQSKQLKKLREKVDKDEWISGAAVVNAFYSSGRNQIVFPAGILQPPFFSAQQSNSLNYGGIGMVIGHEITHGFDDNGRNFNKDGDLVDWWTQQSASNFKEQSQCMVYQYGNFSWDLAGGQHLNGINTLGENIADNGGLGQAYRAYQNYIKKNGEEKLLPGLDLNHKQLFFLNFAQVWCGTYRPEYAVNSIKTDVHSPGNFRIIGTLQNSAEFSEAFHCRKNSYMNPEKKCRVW
Stromelysin-1, sequence (P08254 whole entry): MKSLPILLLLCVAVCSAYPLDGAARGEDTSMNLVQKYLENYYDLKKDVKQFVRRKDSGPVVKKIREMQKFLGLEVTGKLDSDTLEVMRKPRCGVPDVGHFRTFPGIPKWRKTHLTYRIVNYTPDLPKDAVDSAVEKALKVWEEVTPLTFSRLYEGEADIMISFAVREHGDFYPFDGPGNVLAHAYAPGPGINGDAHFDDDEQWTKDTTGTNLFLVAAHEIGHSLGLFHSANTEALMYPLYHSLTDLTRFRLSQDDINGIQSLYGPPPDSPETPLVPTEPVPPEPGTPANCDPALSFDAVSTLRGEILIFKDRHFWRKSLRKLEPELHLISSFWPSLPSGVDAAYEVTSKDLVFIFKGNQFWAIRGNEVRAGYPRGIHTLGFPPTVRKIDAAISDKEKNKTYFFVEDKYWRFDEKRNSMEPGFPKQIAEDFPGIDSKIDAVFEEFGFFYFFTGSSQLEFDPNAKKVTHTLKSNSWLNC

Q: What does the source list for `Cc1cc(S(=O)(=O)N[C@@H](C(=O)NO)C2CCOCC2)ccc1F`?
A: IC50 (Lethal factor [1]): 54 nM; IC50 (Lethal factor [2]): 210 nM; IC50 (Lethal factor [3]): 54 nM; inhibition [4]: < 10%; IC50 (Neprilysin): 9400 nM; IC50 [5]: 4300 nM; IC50 (Interstitial collagenase): 2200 nM; IC50 [6]: 2000 nM; IC50 (Stromelysin-1): 1400 nM; IC50 [7]: 2000 nM; clearance [8]: 72 mL/min/kg; Cmax [9]: 120 nM; Tmax [10]: 18 min; half-life [11]: 144 min; Cmax [12]: 120 nM; bioavailability [13]: 16%; Cmax [14]: 240 nM; bioavailability [15]: 71%; Vd [16]: 1.1 L/kg; half-life [17]: 72 min; Cmax [18]: 250 nM; Tmax [19]: 48 min; bioavailability [20]: 22%; Vd [21]: 1.5 L/kg; half-life [22]: 120 min; Tmax [23]: 18 min; Vd [24]: 3.8 L/kg; Cmax [25]: 730 nM; Tmax [26]: 48 min; clearance [27]: 23 mL/min/kg; Vd [28]: 3.3 L/kg

Reference: ChEMBL document CHEMBL1138106, “The discovery of a potent and selective lethal factor inhibitor for adjunct therapy of anthrax infection” (Bioorg Med Chem Lett, 2006)
